Numbered stars: 1 amine (or outer) side, 2 acyl side, 3 side chain; on linkers, the order of the positions; unused ones are H or OH. Bridge positions count the residues as written; N and C are the ends. Square brackets hold non-standard residues; d marks the D form. Peptide text beside a SMILES is read from it. * marks the point of attachment. Bip(4'-NHAc) = CC(=O)Nc1ccc(-c2ccc(C[C@H](N)C(=O)O)cc2)cc1; X17 = Nc1ccc(-c2cccc(C[C@H](N[*:1])C(=O)[*:2])c2)cn1; Phe(3-CF3) = N[C@@H](Cc1cccc(C(F)(F)F)c1)C(=O)O; Ala(morpholin-4-yl) = N[C@@H](CN1CCOCC1)C(=O)O; Phe(4-CONH2) = NC(=O)c1ccc(C[C@H](N)C(=O)O)cc1; Phe(4-COOH) = N[C@@H](Cc1ccc(C(=O)O)cc1)C(=O)O; X53 = O=C([C@H](Cc1cc(F)c(F)cc1F)N[*:1])[*:2]; Phe(3,4-F2) = N[C@@H](Cc1ccc(F)c(F)c1)C(=O)O; Bip = N[C@@H](Cc1ccc(-c2ccccc2)cc1)C(=O)O; Abu(3R-NH2) = C[C@@H](N)[C@H](N)C(=O)O; Phe(3-Me) = Cc1cccc(C[C@H](N)C(=O)O)c1; hPhe = N[C@@H](CCc1ccccc1)C(=O)O; Nva(5-OH) = N[C@@H](CCCO)C(=O)O; Cha = N[C@@H](CC1CCCCC1)C(=O)O; Suc = O=C(CCC(=O)[*:2])[*:1]; hSer = N[C@@H](CCO)C(=O)O; Carboxymethyl = O=C(O)C*; NMeA = CN[C@@H](C)C(=O)O; Orn = NCCC[C@H](N)C(=O)O; Dab = NCC[C@H](N)C(=O)O; Dap = NC[C@H](N)C(=O)O

T1 sequence (Q15116 25-288): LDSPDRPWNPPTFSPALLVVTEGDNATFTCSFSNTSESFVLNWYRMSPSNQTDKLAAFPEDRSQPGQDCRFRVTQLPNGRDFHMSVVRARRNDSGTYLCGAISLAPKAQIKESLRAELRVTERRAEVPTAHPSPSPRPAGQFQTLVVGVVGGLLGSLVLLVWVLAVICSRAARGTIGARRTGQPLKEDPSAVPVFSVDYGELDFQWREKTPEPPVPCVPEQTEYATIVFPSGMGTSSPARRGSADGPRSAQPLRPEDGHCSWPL

The first assay addresses T1, Alexa fluor-647 labeled human PD-L1-Ig binding to Jurkat cell line over-expressing human PD-1 (Homo sapiens, UniProt Q15116).
T1 construct: expressed in transfected cells; host or cells: Jurkat
Kind of assay: Jurkat-PD-1 Cell Binding High-Content Screening Assay (CBA): Method 3 (Alexa fluor-647 labeled PD-L1-Ig). To be noted: Jurkat-PD-1 cells, Alexa fluor-647 labeled PD-L1-Ig 177 nM; head μM; read-out: CBA Method 3 μM. The essentials: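 Jurkat cells over-expressing human PD-1 in RPMI/10% FCS were preincubated 2 h at 37 °C with compound, then exposed 1 h to Alexa fluor-647 labeled human PD-L1-Ig (177 nM final). Cells fixed in 4% paraformaldehyde with Hoechst 33342 and binding quantified by high-content imaging.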
Regarding `Cc1cccc(C[C@@H]2NC(=O)[C@H](CC(=O)O)NC(=O)[C@H](Cc3ccc(OCC(=O)O)cc3)NC(=O)[C@H](Cc3cc(F)c(F)cc3F)NC(=O)CSC[C@@H](C(=O)N[C@@H](CCN)C(N)=O)NC(=O)[C@H](CCCN)NC(=O)[C@H](C(C)C)NC(=O)[C@H](CC3CCCCC3)NC(=O)[C@H](CCN)NC(=O)[C@@H](CC(C)C)NC(=O)[C@H](C)N(C)C(=O)[C@H](CCC(N)=O)NC(=O)[C@H](Cc3ccc(-c4ccccc4)cc3)NC(=O)[C@H](Cc3ccc(C(=O)O)cc3)NC2=O)c1` [Example 5290] ({CH2CO}-[X53]Y(Carboxymethyl)D[Phe(3-Me)][Phe(4-COOH)][Bip]Q[NMeA][dL][Dab][Cha]V[Orn]C[Dab]-NH2; thioether N-14), the IC50 stood at 0.1 µM. As to `Cc1cccc(C[C@@H]2NC(=O)[C@H](CC(=O)O)NC(=O)[C@H](Cc3ccc(C(=O)O)cc3)NC(=O)[C@H](CN3CCOCC3)NC(=O)CSC[C@@H](C(=O)N[C@@H](CCN)C(N)=O)NC(=O)[C@H](CCC(=O)O)NC(=O)[C@H](C(C)C)NC(=O)[C@H](CC3CCCCC3)NC(=O)[C@H](CCN)NC(=O)[C@@H](CC(C)C)NC(=O)[C@H](C)N(C)C(=O)[C@H](Cc3ccc(C(=O)O)cc3)NC(=O)[C@H](Cc3ccc(-c4ccccc4)cc3)NC(=O)[C@H](Cc3ccc(C(=O)O)cc3)NC2=O)c1` [Example 5259] ({CH2CO}-[Ala(morpholin-4-yl)][Phe(4-COOH)]D[Phe(3-Me)][Phe(4-COOH)][Bip][Phe(4-COOH)][NMeA][dL][Dab][Cha]VEC[Dab]-NH2; thioether N-14), the IC50 worked out at 0.01 µM. On to `CC(=O)Nc1ccc(-c2ccc(C[C@@H]3NC(=O)[C@H](Cc4cccc(C(F)(F)F)c4)NC(=O)[C@H](CC(=O)O)NC(=O)[C@H](Cc4ccc(C(=O)O)cc4)NC(=O)[C@H](CCN)NC(=O)CSC[C@@H](C(=O)N[C@@H](CCN)C(N)=O)NC(=O)[C@H](CCC(N)=O)NC(=O)[C@H](C(C)C)NC(=O)[C@H](CC4CCCCC4)NC(=O)[C@H](CCN)NC(=O)[C@@H](CC(C)C)NC(=O)[C@H](C)N(C)C(=O)[C@H](Cc4ccc(C(N)=O)cc4)NC(=O)[C@H](Cc4ccc(-c5ccccc5)cc4)NC3=O)cc2)cc1` [Example 5097] ({CH2CO}-[Dab][Phe(4-COOH)]D[Phe(3-CF3)][Bip(4'-NHAc)][Bip][Phe(4-CONH2)][NMeA][dL][Dab][Cha]VQC[Dab]-NH2; thioether N-14), for which the IC50 came out at 0.02 µM. Still for that read-out and setting: next, `CC(C)C[C@H]1NC(=O)[C@H](C)N(C)C(=O)[C@H](Cc2ccc(C(N)=O)cc2)NC(=O)[C@H](Cc2ccc(-c3ccccc3)cc2)NC(=O)[C@H](Cc2ccc(OCC(=O)O)cc2)NC(=O)[C@H](Cc2cccc(C(F)(F)F)c2)NC(=O)[C@H](CC(=O)O)NC(=O)[C@H](Cc2ccc(O)cc2)NC(=O)[C@H](CN2CCOCC2)NC(=O)CSC[C@@H](C(=O)N[C@@H](CCN)C(N)=O)NC(=O)[C@H](CCCN)NC(=O)[C@H](C(C)C)NC(=O)[C@H](CC2CCCCC2)NC(=O)[C@H](CCN)NC1=O` [Example 5262] ({CH2CO}-[Ala(morpholin-4-yl)]YD[Phe(3-CF3)]Y(Carboxymethyl)[Bip][Phe(4-CONH2)][NMeA][dL][Dab][Cha]V[Orn]C[Dab]-NH2; thioether N-14): 0.11 µM; `Cc1cccc(C[C@@H]2NC(=O)[C@H](CC(=O)O)NC(=O)[C@H](Cc3ccc(OCC(=O)O)cc3)NC(=O)[C@H](Cc3ccc(F)c(F)c3)NC(=O)CSC[C@@H](C(=O)N[C@@H](CCN)C(N)=O)NC(=O)[C@H](CCCN)NC(=O)[C@H](C(C)C)NC(=O)[C@H](CC3CCCCC3)NC(=O)[C@H](CCN)NC(=O)[C@@H](CC(C)C)NC(=O)[C@H](C)N(C)C(=O)[C@H](CCC(N)=O)NC(=O)[C@H](Cc3ccc(-c4ccccc4)cc3)NC(=O)[C@H](Cc3ccc(C(=O)O)cc3)NC2=O)c1` [Example 5285] ({CH2CO}-[Phe(3,4-F2)]Y(Carboxymethyl)D[Phe(3-Me)][Phe(4-COOH)][Bip]Q[NMeA][dL][Dab][Cha]V[Orn]C[Dab]-NH2; thioether N-14): 0.3 µM; `Cc1cccc(C[C@@H]2NC(=O)[C@H](CC(=O)O)NC(=O)[C@H](Cc3ccc(OCC(=O)O)cc3)NC(=O)[C@H](CN)NC(=O)CSC[C@@H](C(=O)N[C@@H](CCN)C(N)=O)NC(=O)[C@H](CCCN)NC(=O)[C@H](C(C)C)NC(=O)[C@H](CC3CCCCC3)NC(=O)[C@H](CCN)NC(=O)[C@@H](CC(C)C)NC(=O)[C@H](C)N(C)C(=O)[C@H](CCC(N)=O)NC(=O)[C@H](Cc3ccc(-c4ccccc4)cc3)NC(=O)[C@H](Cc3ccc(C(=O)O)cc3)NC2=O)c1` [Example 5178] ({CH2CO}-[Dap]Y(Carboxymethyl)D[Phe(3-Me)][Phe(4-COOH)][Bip]Q[NMeA][dL][Dab][Cha]V[Orn]C[Dab]-NH2; thioether N-14): 0.3 µM. As for `CC(C)C[C@H]1NC(=O)[C@H](C)N(C)C(=O)[C@H](Cc2ccc(C(=O)O)cc2)NC(=O)[C@H](Cc2ccc(-c3ccccc3)cc2)NC(=O)[C@H](CCc2ccccc2)NC(=O)[C@H](Cc2cccc(C(F)(F)F)c2)NC(=O)[C@H](CC(=O)O)NC(=O)[C@H](Cc2ccc(C(=O)O)cc2)NC(=O)[C@H](CN2CCOCC2)NC(=O)CSC[C@@H](C(=O)N[C@@H](CCN)C(N)=O)NC(=O)[C@H](CNC(=O)CCC(=O)O)NC(=O)[C@H](C(C)C)NC(=O)[C@H](CC2CCCCC2)NC(=O)[C@H](CCN)NC1=O` [Example 5210] ({CH2CO}-[Ala(morpholin-4-yl)][Phe(4-COOH)]D[Phe(3-CF3)][hPhe][Bip][Phe(4-COOH)][NMeA][dL][Dab][Cha]V[Dap](Suc)C[Dab]-NH2; thioether N-14), the IC50 stood at 0.14 µM. Still for that read-out and setting: next, `Cc1cccc(C[C@@H]2NC(=O)[C@H](CC(=O)O)NC(=O)[C@H](Cc3ccc(O)cc3)NC(=O)[C@H](CN3CCOCC3)NC(=O)CSC[C@@H](C(=O)N[C@@H](CCN)C(N)=O)NC(=O)[C@H](CCC(=O)O)NC(=O)[C@H](CCO)NC(=O)[C@H](CC3CCCCC3)NC(=O)[C@H](CCN)NC(=O)[C@@H](CC(C)C)NC(=O)[C@H](C)N(C)C(=O)[C@H](CCC(N)=O)NC(=O)[C@H](Cc3ccc(-c4ccccc4)cc3)NC(=O)[C@H](Cc3ccc(OCC(=O)O)cc3)NC2=O)c1` [Example 5261] ({CH2CO}-[Ala(morpholin-4-yl)]YD[Phe(3-Me)]Y(Carboxymethyl)[Bip]Q[NMeA][dL][Dab][Cha][hSer]EC[Dab]-NH2; thioether N-14): 0.06 µM. Still for that read-out and setting: for `Cc1cccc(C[C@@H]2NC(=O)[C@H](CC(=O)O)NC(=O)[C@H](Cc3ccc(OCC(=O)O)cc3)NC(=O)[C@H](CN3CCOCC3)NC(=O)CSC[C@@H](C(=O)N[C@@H](CCN)C(N)=O)NC(=O)[C@H](CCCO)NC(=O)[C@H](C(C)C)NC(=O)[C@H](CC3CCCCC3)NC(=O)[C@H](CCN)NC(=O)[C@@H](CC(C)C)NC(=O)[C@H](C)N(C)C(=O)[C@H](CCC(N)=O)NC(=O)[C@H](Cc3ccc(-c4ccccc4)cc3)NC(=O)[C@H](Cc3cccc(-c4ccc(N)nc4)c3)NC2=O)c1` [Example 5100] ({CH2CO}-[Ala(morpholin-4-yl)]Y(Carboxymethyl)D[Phe(3-Me)][X17][Bip]Q[NMeA][dL][Dab][Cha]V[Nva(5-OH)]C[Dab]-NH2; thioether N-14) the value was 0.27 µM.

The same assay, now with this note: Jurkat-PD-1 cells, Alexa fluor-647 labeled PD-L1-Ig 177 nM; nM; read-out: CBA Method 3.
For `CC(=O)Nc1ccc(-c2ccc(C[C@@H]3NC(=O)[C@H](Cc4cccc(C(F)(F)F)c4)NC(=O)[C@H](CC(=O)O)NC(=O)[C@H](Cc4ccc(C(=O)O)cc4)NC(=O)[C@H]([C@@H](C)N)NC(=O)CSC[C@@H](C(=O)N[C@@H](CCN)C(N)=O)NC(=O)[C@H](CCC(=O)O)NC(=O)[C@H](C(C)C)NC(=O)[C@H](CC4CCCCC4)NC(=O)[C@H](CCN)NC(=O)[C@@H](CC(C)C)NC(=O)[C@H](C)N(C)C(=O)[C@H](Cc4ccc(OCC(=O)O)cc4)NC(=O)[C@H](Cc4ccc(-c5ccccc5)cc4)NC3=O)cc2)cc1` [Example 5162] ({CH2CO}-[Abu(3R-NH2)][Phe(4-COOH)]D[Phe(3-CF3)][Bip(4'-NHAc)][Bip]Y(Carboxymethyl)[NMeA][dL][Dab][Cha]VEC[Dab]-NH2; thioether N-14), the IC50 worked out at 0.0005 µM.

With `Cc1cccc(C[C@@H]2NC(=O)[C@H](CC(=O)O)NC(=O)[C@H](Cc3ccc(C(=O)O)cc3)NC(=O)[C@H](CN3CCOCC3)NC(=O)CSC[C@@H](C(=O)N[C@@H](CCN)C(N)=O)NC(=O)[C@H](CCC(=O)O)NC(=O)[C@H](C(C)C)NC(=O)[C@H](CC3CCCCC3)NC(=O)[C@H](Cc3cnc[nH]3)NC(=O)[C@@H](CC(C)C)NC(=O)[C@H](C)N(C)C(=O)[C@H](Cc3ccc(C(=O)O)cc3)NC(=O)[C@H](Cc3ccc(-c4ccccc4)cc3)NC(=O)[C@H](Cc3ccc(C(=O)O)cc3)NC2=O)c1` [Example 5254] ({CH2CO}-[Ala(morpholin-4-yl)][Phe(4-COOH)]D[Phe(3-Me)][Phe(4-COOH)][Bip][Phe(4-COOH)][NMeA][dL]H[Cha]VEC[Dab]-NH2; thioether N-14), the IC50 was 0.0013 µM.

In the case of `CC(=O)Nc1ccc(-c2ccc(C[C@@H]3NC(=O)[C@H](Cc4cccc(C(F)(F)F)c4)NC(=O)[C@H](CC(=O)O)NC(=O)[C@H](Cc4ccc(C(=O)O)cc4)NC(=O)[C@H](CC(C)C)NC(=O)CSC[C@@H](C(=O)N[C@@H](CCN)C(N)=O)NC(=O)[C@H](CC(N)=O)NC(=O)[C@H](C(C)C)NC(=O)[C@H](CC4CCCCC4)NC(=O)[C@H](CCN)NC(=O)[C@@H](CC(C)C)NC(=O)[C@H](C)N(C)C(=O)[C@H](CCCN)NC(=O)[C@H](Cc4ccc(-c5ccccc5)cc4)NC3=O)cc2)cc1` [Example 5095] ({CH2CO}-L[Phe(4-COOH)]D[Phe(3-CF3)][Bip(4'-NHAc)][Bip][Orn][NMeA][dL][Dab][Cha]VNC[Dab]-NH2; thioether N-14), the IC50 turned out to be 0.0061 µM.

For the origin of these results see patent US20240409585A1, “MACROCYCLIC IMMUNOMODULATORS” (priority 2021, published 2024).
